Experimental data: patent US8021661B2, “Cripto binding molecules” (Biogen Idec MA Inc., priority 2005, dated 2011)

Assays:
NCCIT xenograft tumors = test: Established NCCIT human testicular carcinoma xenografts; type: in vivo, athymic nude mice; settings: cis-platinum 2 mg/kg/injection SC 3×/wk×6; Day 20 to Day 66
Description: Treatments were initiated on Day 15 when the tumors reached a minimum change in size of 100 mg.
One hundred fifty (150) male athymic nude mice (Harlan Sprague Dawley, Madison, Wis.) were started on the study at seven to eight weeks of age. Animals were acclimated to the laboratory for at least five days prior to implantation of the tumor. Housing was in ventilated cage racks, and food and water were allowed ad libitum.
NCCIT cells were obtained from the American Tissue Type Collection (Manassas, Va.). The cell line was passed in vitro 4 times prior to implantation. Cells were grown in vitro in RPMI-1640+10% fetal bovine serum (FBS) media without antibiotics (5% CO2).
An inoculum of 5×10^6 NCCIT cells in 200 L RPMI-1640 without serum (25%) plus Matrigel (75%) was implanted SC into the right flank area on Day 0. Tumor size and body weight measurements were recorded at least twice weekly beginning on Day 6. On Day 15, mice with tumors with a minimum increase in tumor weight of 100 mg and a maximum increase of 244 mg, excluding tumors with non-progressive growth, were randomized to treatment and control groups (see Table 12). […]
Tumor measurements were determined using digital calipers. Body weights and tumor size measurements were recorded on Day 6 and were continued at least twice weekly until the termination of the study. […]

Calu-6 xenograft tumors = test: Established Calu-6 human lung xenografts; type: in vivo, athymic nude mice; settings: irinotecan 10 mg/kg on Day 13-14, 17-21, 24-26; Day 20 until Day 45
Description: One hundred sixty (160) female athymic nude mice (Harlan Sprague Dawley, Madison, Wis.) were started on the study at eight to nine weeks of age. Animals were acclimated to the laboratory for at least five days prior to implantation of the tumor. Housing was in ventilated cage racks, and food and water were allowed ad libitum.
Calu-6 cells were obtained from the American Tissue Type Collection (Manassas, Va.). The cell line was passed in vitro 11 times prior to implantation. Cells were grown in vitro in RPMI-1640+10% fetal bovine serum (FBS) media without antibiotics (5% CO2). Bacterial cultures were performed on aliquots of the tumor homogenate preparation that was implanted into the mice.
On Day −1, the mice were implanted SC with BioMedics animal ID chips (Model IMI-1000; Seaford, Del.) subcutaneously on the left flank. An inoculum of 5×10^6 Calu-6 cells in 200 μL RPMI-1640 without serum was implanted SC into the right flank area on Day 0. Tumor size and body weight measurements were recorded at least twice weekly beginning on Day 4. When the tumors measured a minimum of 100 mg, the mice were randomized to treatment and control groups (see Table 13). […]
Tumor measurements were determined using digital calipers. Body weights and tumor size measurements were recorded on Day 4 and were continued twice weekly until the termination of the study. […]

BT-474 xenograft tumors = test: Established BT-474 human breast tumor xenografts, full-length B3F6.1-DM4; type: in vivo, athymic nude mice; settings: Taxol 25 mg/kg IP q4d×3 starting Day 15
Description: One hundred forty (140) female athymic nude mice (Harlan Sprague Dawley, Madison, Wis.) were started on the study at ten weeks of age. Animals were acclimated to the laboratory for at least five days prior to implantation of the tumor. Housing was in ventilated cage racks, and food and water were allowed ad libitum.
BT-474 tumors were obtained from cryopreserved solid tumor fragments from a serially passaged in vivo donor line established at Biogen Idec (cryo reg #0141, established originally from cells obtained from the […] (Manassas, Va.)). Tumor fragments were removed from cryopreservation and serially passaged SC in vivo for 3 generations in female athymic nude mice prior to implantation for this study. […]
On Day −1, the mice were implanted with BioMedics animal ID chips (Model IMI-1000; Seaford, Del.) SC on the left flank. […] Tumor size and body weight measurements were recorded at least twice weekly beginning on Day 5. When the tumors measured a minimum of 100 mg (Day 15), mice were randomized to treatment and control groups (see Table 10) based on tumor size and excluding tumors with non-progressive growth. […]
Tumor measurements were determined using digital calipers. Body weights and tumor size measurements were recorded on Day 0 and were continued twice weekly until the termination of the study. […]

[1] = Size exclusion chromatography of purified antibody; type: physicochemical; settings: purified using only the Protein G column
Description: Antibody was produced and purified using methods described in Example 4 above. […] Reduced and non-reduced purified protein samples were analyzed by SDS-PAGE electrophoresis. Under non-reducing conditions, Form A is expected to migrate as a single 120 kDa homodimer and Form B as a 60 kDa doublet.
Reduced and non-reduced purified protein samples were analyzed by SDS-PAGE electrophoresis. Under these conditions, Form A is expected to migrate as a single 120 kDa homodimer and Form B as a 60 kDa doublet.

## N.N.[Cl][Pt][Cl] [Cis-platinum, cisplatin]
NCCIT xenograft tumors
  inhibition of tumor growth: significant inhibition (P<0.05) of tumor growth from Day 20 to Day 66

## CCc1c2c(nc3ccc(OC(=O)N4CCC(N5CCCCC5)CC4)cc13)-c1cc3c(c(=O)n1C2)COC(=O)[C@]3(O)CC [Irinotecan, irinotecan]
Calu-6 xenograft tumors
  inhibition of tumor growth: significant (P<0.001) inhibition of tumor growth

## CC(=O)O[C@H]1C(=O)[C@@]2(C)[C@H]([C@H](OC(=O)c3ccccc3)[C@]3(O)C[C@H](OC(=O)[C@H](O)[C@@H](NC(=O)c4ccccc4)c4ccccc4)C(C)=C1C3(C)C)[C@]1(OC(C)=O)CO[C@@H]1C[C@@H]2O [Taxol, paclitaxel]
BT-474 xenograft tumors
  inhibition of tumor growth: significant (P<0.05) inhibition of tumor growth from Day 26 to Day 50

B1: chimeric dd-B3F6: CH2 domain-deleted chimeric B3F6 with connecting peptide SEQ ID NO: 5; heavy chain SEQ ID NO: 3, light chain SEQ ID NO: 4 (antibody)
heavy: QVQLQQVGAELVKPGASVKLSCKASGYTFTSYWIHWVKQRPGQGLEWIGENDPSNGRTNYNEKFKNKATLTVDKSSSTAYMHLSSLTSEDSAVYYCSRGPNYFYSMDYWGQGTSVTVSSASTKGPSVFPLAPSSKSTSGGTAALGCLVKDYFPEPVTVSWNSGALTSGVHTFPAVLQSSGLYSLSSVVTVPSSSLGTQTYICNVNHKPSNTKVDKKVEPKSCDKTHTCPPCPEPKSCDTPPPCPRCPAPGGGSSGGGSGGQPREPQVYTLPPSRDELTKNQVSLTCLVKGFYPSDIAVEWESNGQPENNYKTTPPVLDSDGSFFLYSKLTVDKSRWQQGNVFSCSVMHEALHNHYTQKSLSLSPG
light: DFLMTQTPLSLPVSLGDQASISCRSSQSIVHSNGNTYLEWYLQKPGQSPKLLIYKVSNRFSGVPDRFSGSGSGTDFTLKISRVEAEDLGVYYCFQGSHVPLTFGAGTKLELKRTVAAPSVFIFPPSDEQLKSGTASVVCLLNNFYPREAKVQWKVDNALQSGNSQESVTEQDSKDSTYSLSSTLTLSKADYEKHKVYACEVTHQGLSSPVTKSFNRGEC
[1]
  monomer (size exclusion chromatography): 93-98%
